Key:
[1] = Evaluation of brain penetration in mice (blood and brain concentration at brain Cmax); type: in vivo, mouse; details: 1 mg/kg single oral dose, C57BL/6J mice
Summary of the method: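 Male C57BL/6J mice (8 weeks, n=3) dosed orally once at 1 […] mg/kg; plasma and brain collected at 0.25, 0.5, 1, 2, 4 and 8 h. Compound extracted with acetonitrile from brain homogenate and plasma, quantified by LC/MS/MS.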

[2] = system: mouse cuprizone model; assay: Myelin regeneration promoting action in mouse cuprizone model (LFB staining of corpus callosum); type: in vivo; details: 20 μg/kg oral once a day, 4 weeks after 6 weeks cuprizone diet; untreated = 100%
Description: C57BL/6J mice (8 weeks old, male) were fed a diet containing 0.3% cuprizone (bis(cyclohexanone)oxaldihydrazone) (Research Diets, Inc. #D17042709) for 6 weeks to induce demyelination. Subsequently, the mice were divided into groups of 8 mice based on the body weight, the diet was switched to a cuprizone-free diet (Research Diets, Inc. #D10001), and administration of the test compound or vehicle was started. […] After administration of 4 weeks, the mice were euthanized, perfused with a 4% paraformaldehyde solution, and then brain sampling was performed. The brain sample obtained was embedded in paraffin to prepare a coronal section specimen at Bregma+1. The specimen was stained with Luxor Fast Blue (LFB) to visualize the myelin sheath, and images were acquired using a fluorescence microscope (KEYENCE #BZ-X710). The corpus callosum area and the LFB staining positive area in the corpus callosum of the obtained pathological specimen image were measured using an image analysis application (KEYENCE #BZ-H3C/BZ-H3XD), and the ratio (LFB staining positive area in the corpus callosum/corpus callosum area) was calculated. The intact group is a non-pathogenic group, and the […] control group were sampled after feeding the diet containing 0.3% cuprizone for 6 weeks.
In the table, the ratio of LFB staining positive area in the corpus callosum/corpus callosum area of the untreated group, fed with the cuprizone-free diet for 6 weeks, was regarded as 100%. As a result, the control group, fed with the cuprizone-containing diet for 6 weeks, decreased the ratio to 23.6%, and was confirmed to progress demyelination. The group, in which the cuprizone-containing diet was fed for 6 weeks and switched to the cuprizone-free diet, and the vehicle was administered, improved the ratio of area of LFB staining positive/area of corpus callosum to 50.1%. […] In addition, GSK239512 described in WO2013/107336 pamphlet was evaluated in the test to show the ratio of LFB staining positive area/corpus callosum area of 45.8%, in which no demyelination regeneration promoting action was shown as compared with the vehicle-administered group.

[3] = system: rat oligodendrocyte progenitor cells; assay: Promotive activity of rat oligodendrocyte progenitor cell differentiation-2 (immunostaining of MBP); type: cell-based; details: Test 2; vitamin D derivative 2 μM, T3 30 nM; 4 days
Summary of the method: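 Rat OPCs prepared by shaking in separation medium about 22 h at 37 °C, 200 rpm, and collecting the supernatant.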

[4] = target: T1, human VDR (Homo sapiens, UniProt P11473); assay: Evaluation of VDR transcription activity in human osteoblasts (HOS cells), luciferase reporter; details: Activity (EC50, VDR transcription activity), HOS cells transfected with human VDR, human RXRα and DR3 luciferase reporter; 21 hours
T1 sequence (P11473 1-427): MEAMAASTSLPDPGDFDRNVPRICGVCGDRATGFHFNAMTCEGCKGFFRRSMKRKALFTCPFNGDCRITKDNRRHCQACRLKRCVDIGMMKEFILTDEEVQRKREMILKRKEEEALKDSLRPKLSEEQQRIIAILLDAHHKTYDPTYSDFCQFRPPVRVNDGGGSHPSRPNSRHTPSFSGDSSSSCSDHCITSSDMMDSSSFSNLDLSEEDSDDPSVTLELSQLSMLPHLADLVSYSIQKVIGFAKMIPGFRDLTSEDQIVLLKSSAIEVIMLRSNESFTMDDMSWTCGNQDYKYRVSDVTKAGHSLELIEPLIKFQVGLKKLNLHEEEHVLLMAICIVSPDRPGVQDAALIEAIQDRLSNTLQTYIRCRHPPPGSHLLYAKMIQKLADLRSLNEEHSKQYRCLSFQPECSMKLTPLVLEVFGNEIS
T1 sequence (P19793 1-462 partner): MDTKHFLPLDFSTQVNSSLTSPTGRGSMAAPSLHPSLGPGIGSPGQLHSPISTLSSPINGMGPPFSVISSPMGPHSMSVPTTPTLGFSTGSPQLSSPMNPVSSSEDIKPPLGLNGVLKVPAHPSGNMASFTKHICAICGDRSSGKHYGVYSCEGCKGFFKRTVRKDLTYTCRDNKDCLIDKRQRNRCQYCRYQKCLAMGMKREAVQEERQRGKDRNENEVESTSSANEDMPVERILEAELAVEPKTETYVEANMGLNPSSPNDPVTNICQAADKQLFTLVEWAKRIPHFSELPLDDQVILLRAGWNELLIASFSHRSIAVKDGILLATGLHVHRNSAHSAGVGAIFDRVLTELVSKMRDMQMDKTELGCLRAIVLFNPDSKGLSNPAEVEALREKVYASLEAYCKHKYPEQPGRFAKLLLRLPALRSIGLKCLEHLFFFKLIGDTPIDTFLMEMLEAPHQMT

For `C[C@H](CCN1CCOCC1)[C@H]1CC[C@H]2/C(=C/C=C3C[C@@H](O)C[C@H](O)C3)CCC[C@]12C` [Compound D023, (1R,3R)-5-(2-((1R,3aS,7aR,E)-7a-methyl-1-((R)-4-morpholinobutan-2-yl)octahydro-4H-inden-4-ylidene)ethylidene)cyclohexane-1,3-diol], which “Concentration in blood (mean ± SD) at brain Cmax” value ([1]; n=3) is on record?
Its value is 580 ± 107 nM.

And the “Concentration in brain (mean ± SD) at brain Cmax” value ([1]; n=3)?
Its value is 595 ± 23 pmol/g.

What about the Kp ([1]; male, C57BL/6J, mouse, brain/plasma, po, 1 mg/kg, read-out: Concentration in brain/in blood ratio at brain Cmax) of the same compound?
Its Kp is 1.03.

What about the “Ratio (%): area of LFB staining positive/area of corpus callosum, mean” value [2] of the same compound?
Its value is 87.0%.

What about the “Mean (number of MBP-positive cells/number of Hoechst33342-positive cells)” value [3] of the same compound?
Its value is 0.36.

What about the EC50 [4] of the same compound?
Its EC50 is 10 to 100 nM.
